Laboratory results taken from ChEMBL document CHEMBL5649169 (ChemMedChem, 2018).

Columns and labels:
[1] = biological target: Serine/threonine-protein kinase LMTK2 (Homo sapiens) (UniProt Q8IWU2)
[2] = biological target: Desmoglein-1 (Homo sapiens) (UniProt Q02413)
[3] = biological target: Non-selective voltage-gated ion channel VDAC2 (Homo sapiens) (UniProt P45880)
[4] = biological target: Putative uncharacterized protein ZNF436-AS1 (Homo sapiens) (UniProt Q8NC38)
[5] = biological target: Exportin-4 (Homo sapiens) (UniProt Q9C0E2)
Sequence of Exportin-4 (Homo sapiens) (Q9C0E2 whole entry): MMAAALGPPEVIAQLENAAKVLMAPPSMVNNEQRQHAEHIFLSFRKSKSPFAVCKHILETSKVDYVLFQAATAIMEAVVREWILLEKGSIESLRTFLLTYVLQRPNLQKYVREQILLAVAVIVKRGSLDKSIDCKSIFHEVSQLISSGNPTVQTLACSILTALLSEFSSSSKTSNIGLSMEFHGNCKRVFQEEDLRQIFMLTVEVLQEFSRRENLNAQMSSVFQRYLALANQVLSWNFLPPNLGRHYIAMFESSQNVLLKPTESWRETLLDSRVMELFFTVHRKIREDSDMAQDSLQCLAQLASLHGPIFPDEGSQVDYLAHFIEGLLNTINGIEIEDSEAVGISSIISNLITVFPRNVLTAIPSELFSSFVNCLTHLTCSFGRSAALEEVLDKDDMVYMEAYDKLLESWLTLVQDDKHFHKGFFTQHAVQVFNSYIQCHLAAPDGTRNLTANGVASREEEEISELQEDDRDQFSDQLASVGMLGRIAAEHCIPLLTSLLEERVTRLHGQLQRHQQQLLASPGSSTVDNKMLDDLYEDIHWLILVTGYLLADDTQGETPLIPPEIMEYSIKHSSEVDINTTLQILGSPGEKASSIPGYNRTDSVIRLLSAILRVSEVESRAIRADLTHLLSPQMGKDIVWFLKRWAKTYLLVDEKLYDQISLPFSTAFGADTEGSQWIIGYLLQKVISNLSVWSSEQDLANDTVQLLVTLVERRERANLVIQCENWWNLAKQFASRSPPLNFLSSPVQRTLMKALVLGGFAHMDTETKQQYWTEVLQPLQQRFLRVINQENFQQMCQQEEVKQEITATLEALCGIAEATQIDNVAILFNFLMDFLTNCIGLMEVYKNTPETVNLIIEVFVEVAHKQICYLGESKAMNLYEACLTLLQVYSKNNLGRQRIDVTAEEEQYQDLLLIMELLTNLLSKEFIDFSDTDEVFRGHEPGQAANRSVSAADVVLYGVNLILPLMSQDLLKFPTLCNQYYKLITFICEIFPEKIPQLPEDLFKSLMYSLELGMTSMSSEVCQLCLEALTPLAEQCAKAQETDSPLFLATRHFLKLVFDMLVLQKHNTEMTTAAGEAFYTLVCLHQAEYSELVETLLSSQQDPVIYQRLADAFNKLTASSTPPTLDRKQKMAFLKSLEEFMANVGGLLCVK

[6] = biological target: Small ribosomal subunit protein uS11 (Homo sapiens) (UniProt P62263)
[7] = biological target: Activator of 90 kDa heat shock protein ATPase homolog 1 (Homo sapiens) (UniProt O95433)
Sequence of Activator of 90 kDa heat shock protein ATPase homolog 1 (Homo sapiens) (O95433 whole entry): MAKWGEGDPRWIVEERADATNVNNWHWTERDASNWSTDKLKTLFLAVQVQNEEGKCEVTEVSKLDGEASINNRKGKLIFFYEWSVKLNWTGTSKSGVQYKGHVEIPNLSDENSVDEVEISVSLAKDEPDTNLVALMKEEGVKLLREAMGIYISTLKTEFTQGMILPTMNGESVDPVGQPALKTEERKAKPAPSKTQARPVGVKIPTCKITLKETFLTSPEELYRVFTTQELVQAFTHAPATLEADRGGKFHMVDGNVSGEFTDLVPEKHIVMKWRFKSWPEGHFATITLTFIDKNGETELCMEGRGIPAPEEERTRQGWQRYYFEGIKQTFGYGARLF

[8] = biological target: Glutathione S-transferase kappa 1 (Homo sapiens) (UniProt Q9Y2Q3)
Sequence of Glutathione S-transferase kappa 1 (Homo sapiens) (Q9Y2Q3 whole entry): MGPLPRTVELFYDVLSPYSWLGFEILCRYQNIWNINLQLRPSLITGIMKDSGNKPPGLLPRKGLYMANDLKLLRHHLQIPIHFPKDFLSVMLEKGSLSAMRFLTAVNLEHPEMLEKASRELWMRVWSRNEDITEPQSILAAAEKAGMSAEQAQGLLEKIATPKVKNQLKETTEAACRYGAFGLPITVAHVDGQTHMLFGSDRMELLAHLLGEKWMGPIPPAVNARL

[9] = biological target: Dual specificity protein kinase CLK4 (Homo sapiens) (UniProt Q9HAZ1)
Sequence of Dual specificity protein kinase CLK4 (Homo sapiens) (Q9HAZ1 whole entry, looked up): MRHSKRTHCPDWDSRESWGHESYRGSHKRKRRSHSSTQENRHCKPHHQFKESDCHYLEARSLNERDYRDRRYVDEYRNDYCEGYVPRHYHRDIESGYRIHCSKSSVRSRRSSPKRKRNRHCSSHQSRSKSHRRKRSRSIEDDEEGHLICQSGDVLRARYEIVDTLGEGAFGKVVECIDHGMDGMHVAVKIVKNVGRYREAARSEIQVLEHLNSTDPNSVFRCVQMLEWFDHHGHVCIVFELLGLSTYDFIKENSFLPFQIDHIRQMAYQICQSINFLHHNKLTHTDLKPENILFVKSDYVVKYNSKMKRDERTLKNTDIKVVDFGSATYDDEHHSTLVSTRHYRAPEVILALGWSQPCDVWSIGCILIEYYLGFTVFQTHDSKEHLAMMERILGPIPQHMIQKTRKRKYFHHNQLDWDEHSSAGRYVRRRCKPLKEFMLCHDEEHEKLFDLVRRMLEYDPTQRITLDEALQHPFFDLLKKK

[10] = biological target: Serine/threonine-protein kinase pim-2 (Homo sapiens) (UniProt Q9P1W9)
Sequence of Serine/threonine-protein kinase pim-2 (Homo sapiens) (Q9P1W9 whole entry, looked up): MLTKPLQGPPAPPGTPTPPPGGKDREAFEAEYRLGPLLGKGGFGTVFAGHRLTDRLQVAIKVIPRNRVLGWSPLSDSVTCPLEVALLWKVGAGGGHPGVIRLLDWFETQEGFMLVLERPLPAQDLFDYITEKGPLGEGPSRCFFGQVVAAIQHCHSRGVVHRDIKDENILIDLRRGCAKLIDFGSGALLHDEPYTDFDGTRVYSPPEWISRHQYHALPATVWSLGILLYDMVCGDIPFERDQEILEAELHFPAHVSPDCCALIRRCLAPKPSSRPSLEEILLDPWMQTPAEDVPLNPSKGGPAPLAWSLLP

[11] = biological target: Very long-chain specific acyl-CoA dehydrogenase, mitochondrial (Homo sapiens) (UniProt P49748)
Note: assay method not described here.

Sequence of Serine/threonine-protein kinase LMTK2 (Homo sapiens) (Q8IWU2 whole entry): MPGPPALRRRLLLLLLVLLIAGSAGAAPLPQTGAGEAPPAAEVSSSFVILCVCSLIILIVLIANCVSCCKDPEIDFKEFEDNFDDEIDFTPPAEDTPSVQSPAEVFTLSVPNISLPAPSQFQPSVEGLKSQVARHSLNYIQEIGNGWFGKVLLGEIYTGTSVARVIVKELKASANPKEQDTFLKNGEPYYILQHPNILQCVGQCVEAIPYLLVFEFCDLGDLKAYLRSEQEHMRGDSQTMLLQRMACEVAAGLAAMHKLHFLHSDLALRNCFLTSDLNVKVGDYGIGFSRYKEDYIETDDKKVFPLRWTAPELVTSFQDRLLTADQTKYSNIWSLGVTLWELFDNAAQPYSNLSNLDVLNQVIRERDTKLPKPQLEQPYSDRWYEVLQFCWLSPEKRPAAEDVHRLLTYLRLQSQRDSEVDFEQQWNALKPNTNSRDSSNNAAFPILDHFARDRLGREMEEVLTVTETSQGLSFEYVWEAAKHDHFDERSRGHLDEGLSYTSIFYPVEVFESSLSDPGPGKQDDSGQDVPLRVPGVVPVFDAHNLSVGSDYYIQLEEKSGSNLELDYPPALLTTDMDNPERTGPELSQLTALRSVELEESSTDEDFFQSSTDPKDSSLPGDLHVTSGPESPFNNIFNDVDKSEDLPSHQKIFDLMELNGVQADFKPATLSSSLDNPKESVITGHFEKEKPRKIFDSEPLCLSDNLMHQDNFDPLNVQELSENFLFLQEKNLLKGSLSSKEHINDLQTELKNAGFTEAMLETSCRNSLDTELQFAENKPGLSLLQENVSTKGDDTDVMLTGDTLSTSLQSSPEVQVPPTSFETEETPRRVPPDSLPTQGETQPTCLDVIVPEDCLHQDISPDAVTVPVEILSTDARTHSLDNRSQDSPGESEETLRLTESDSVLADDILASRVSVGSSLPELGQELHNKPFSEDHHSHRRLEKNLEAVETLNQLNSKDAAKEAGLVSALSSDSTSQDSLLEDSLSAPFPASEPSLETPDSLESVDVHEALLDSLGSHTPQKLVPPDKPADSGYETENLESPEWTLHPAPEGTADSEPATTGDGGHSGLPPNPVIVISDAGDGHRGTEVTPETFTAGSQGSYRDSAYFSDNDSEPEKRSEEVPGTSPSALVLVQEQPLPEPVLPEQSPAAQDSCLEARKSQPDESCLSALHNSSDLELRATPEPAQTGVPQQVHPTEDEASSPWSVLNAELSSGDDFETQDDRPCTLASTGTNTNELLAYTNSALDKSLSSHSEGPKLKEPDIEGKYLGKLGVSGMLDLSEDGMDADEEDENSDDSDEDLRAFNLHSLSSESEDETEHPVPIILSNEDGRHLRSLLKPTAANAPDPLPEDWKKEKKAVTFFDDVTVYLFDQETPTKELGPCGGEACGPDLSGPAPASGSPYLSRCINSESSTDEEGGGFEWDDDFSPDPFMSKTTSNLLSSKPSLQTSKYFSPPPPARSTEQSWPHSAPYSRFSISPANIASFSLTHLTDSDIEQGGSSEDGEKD
Sequence of Putative uncharacterized protein ZNF436-AS1 (Homo sapiens) (Q8NC38 whole entry): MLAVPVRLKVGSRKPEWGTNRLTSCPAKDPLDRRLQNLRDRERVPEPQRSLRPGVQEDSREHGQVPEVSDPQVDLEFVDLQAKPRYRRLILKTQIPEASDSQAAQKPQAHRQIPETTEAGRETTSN
Sequence of Non-selective voltage-gated ion channel VDAC2 (Homo sapiens) (P45880 whole entry): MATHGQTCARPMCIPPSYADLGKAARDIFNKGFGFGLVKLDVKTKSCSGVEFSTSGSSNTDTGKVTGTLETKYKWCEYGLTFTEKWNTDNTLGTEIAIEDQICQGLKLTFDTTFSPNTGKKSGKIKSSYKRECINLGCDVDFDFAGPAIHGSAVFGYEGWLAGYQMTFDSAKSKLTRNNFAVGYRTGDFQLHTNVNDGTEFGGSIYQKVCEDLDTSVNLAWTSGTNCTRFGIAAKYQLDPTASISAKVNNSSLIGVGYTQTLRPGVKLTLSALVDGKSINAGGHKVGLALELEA

Compound: Cc1ccc(C(=O)Nc2cccc(C(F)(F)F)c2)cc1Nc1nc(-c2cccnc2)nc2c1cnn2C
- ED50 [1]: 2.39 µM
- ED50 [2]: 47.5 µM
- ED50 [3]: 3.15 µM
- ED50 [4]: 8.64 µM
- ED50 [5]: 0.00594 µM
- ED50 [6]: 5.3 µM
- ED50 [7]: 44.8 µM
- ED50 [8]: 6.96 µM
- ED50 [9]: 676 µM
- ED50 [10]: 12.2 µM

Compound: Cc1ccc(C(=O)Nc2cccc(C(F)(F)F)c2)cc1Nc1nc(-c2cccnc2)nc2nn(C)cc12
- ED50 [11]: 0.051 µM
